These results are taken from patent US9017725B2, “Topical drug delivery systems for ophthalmic use” (Aurinia Pharmaceuticals Inc., priority 2009, dated 2015).

Molecules are shown by their SMILES. Values after ≈ are worked out from the molar mass of the structure shown.

A short description of the series: Aqueous solubility and solubility in mixed nanomicellar formulation. To be noted: for solubility: mixed nanomicellar formulation, aqueous with cosolvent or surfactant or cyclodextrin. The format is physicochemical. Here is the method: The ethanolic solution was evaporated under vacuum to get a thin film near-solid matter. Deionized water, 25 mL, was added to the thin film near-solid matter and sonicated for approximately 20 min to ensure complete formation of mixed micelles. The prepared 2× formulation was stored at room temperature.

With `C[C@@H]1C[C@H]2[C@@H]3CCC4=CC(=O)C=C[C@]4(C)[C@@]3(F)[C@@H](O)C[C@]2(C)[C@@]1(O)C(=O)CO` [dexamethasone], the solubility is 1000 µg/mL (≈ 2.55 mM). The improvement of solubility result (mixed nanomicellar formulation versus aqueous solubility) is on record as “about 6.2 fold”.
In turn, `CO[C@H]1C[C@@H]2CC[C@@H](C)[C@@](O)(O2)C(=O)C(=O)N2CCCC[C@H]2C(=O)O[C@H]([C@H](C)C[C@@H]2CC[C@@H](O)[C@H](OC)C2)CC(=O)[C@H](C)/C=C(\C)[C@@H](O)[C@@H](OC)C(=O)[C@H](C)C[C@H](C)/C=C/C=C/C=C/1C` [rapamycin] registered a solubility of 4000 µg/mL (≈ 4.38 mM). The improvement of solubility result (mixed nanomicellar formulation (4 mg/mL) versus aqueous solubility) is recorded as “up to 2000 fold”.

Usually solubility stands for how much of the substance goes into solution per volume. A high value points to a readily soluble substance.
